For 31 compounds, IC50 results are on record in US8735384B2, “Amino heteroaryl compounds as beta-secretase modulators and methods of use” (Amgen Inc., priority 2010, dated 2014).

One assay deals with BACE1 (Homo sapiens, UniProt P56817). As to the kind of experiment: In vitro enzymatic BACE FRET assay. As to conditions: beta secretase enzyme 0.2 nM, FRET substrate 50 nM, pH 4.2; read-out: BACE1 FRET assay (IC50 class). Format: biochemical. The method in brief:
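Enzyme activity was measured as release of quenching from a 50 nM fluorophore/quencher peptide spanning the cleavage site, over 1 h. This followed 1 h pre-incubation of 0.2 nM enzyme with compound dilutions at pH 4.2 (acetate, 10% DMSO, genapol). Tris addition ended the reaction before fluorescence was measured.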

The subject of assay [1] is Aβ40 in conditioned medium of cells stably expressing Amyloid Precursor Protein (APP). As to the kind of experiment: In vitro BACE cell-based assay (HEK cell assay), Aβ40 sandwich ELISA. To be noted: inhibition of Aβ40, 24 h incubation, read-out: HEK cell assay (IC50 class). The method in brief:
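Aβ40 in conditioned medium measured after 24 h compound exposure (10-point series, 100 μM or 10 μM start, 0.1% DMSO) of cells stably expressing APP, seeded 40K/well. Detection: pAb40/6E10-biotin sandwich ELISA at 4°C with time-resolved europium read-out; IC50 derived from percent of control.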
For orientation: ELISA stands for enzyme-linked immunosorbent assay.

Like-named read-outs stand apart in the source and are kept apart here. Where only a bound is given, the exact number is not on record here.

A word on the IC50: it is the concentration needed to halve the response being measured.

Chain of BACE1 (P56817 46-501, species assumed): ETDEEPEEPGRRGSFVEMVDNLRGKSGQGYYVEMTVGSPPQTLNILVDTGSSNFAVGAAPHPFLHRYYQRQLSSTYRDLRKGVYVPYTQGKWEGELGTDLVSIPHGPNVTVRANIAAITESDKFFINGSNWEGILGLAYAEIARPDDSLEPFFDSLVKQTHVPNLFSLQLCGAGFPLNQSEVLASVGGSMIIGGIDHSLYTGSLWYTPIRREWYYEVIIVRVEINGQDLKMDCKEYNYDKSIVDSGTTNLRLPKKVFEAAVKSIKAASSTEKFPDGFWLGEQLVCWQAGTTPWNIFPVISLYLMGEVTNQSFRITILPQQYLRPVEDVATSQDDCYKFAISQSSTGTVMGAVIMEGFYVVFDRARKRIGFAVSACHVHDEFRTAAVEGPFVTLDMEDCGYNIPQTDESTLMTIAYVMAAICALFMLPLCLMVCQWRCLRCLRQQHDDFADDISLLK

Turning to `CC(C)(C)CCc1cccc(C(=O)N2CCCC2)c1-c1ccc2nc(N)c(N3C[C@@H]4C[C@H]3CO4)cc2c1` [Example 165, (2-(2-amino-3-((1S,4S)-2-oxa-5-azabicyclo[2.2.1]heptan-5-yl)quinolin-6-yl)-3-(3,3-dimethylbutyl)phenyl)(pyrrolidin-1-yl)methanone], the IC50 was below 100 nM on BACE1 and below 100 nM in assay [1] (Homo sapiens, HEK293, 24 h).

Turning to `CC(C)(C)CCc1cccc(C(=O)N2CC[C@H](F)C2)c1-c1ccc2nc(N)c(N3CCOCC3)cc2c1` [Example 166, (S)-(2-(2-amino-3-morpholinoquinolin-6-yl)-3-(3,3-dimethylbutyl)phenyl)(3-fluoropyrrolidin-1-yl)methanone], the IC50 was below 100 nM on BACE1 and below 100 nM in assay [1] (Homo sapiens, HEK293, 24 h).

For `Nc1nc2ccc(-c3c(C#CC4CCCCC4)cccc3C(=O)N3CCCC3)cc2cc1N1CCOCC1` [Example 167, (2-(2-amino-3-morpholinoquinolin-6-yl)-3-(cyclohexylethynyl)phenyl)(pyrrolidin-1-yl)methanone], the IC50 at BACE1 was below 100 nM; in assay [1] (Homo sapiens, HEK293, 24 h) it was below 100 nM.

In the case of `Nc1nc2ccc(-c3c(CCC4CCCCC4)cccc3C(=O)N3CCCC3)cc2cc1N1CCOCC1` [Example 168, (2-(2-amino-3-morpholinoquinolin-6-yl)-3-(2-cyclohexylethyl)phenyl)(pyrrolidin-1-yl)methanone], the IC50 on BACE1 was below 100 nM; in assay [1] (Homo sapiens, HEK293, 24 h), below 100 nM.

With `Cc1cccc(OCc2ccccc2)c1-c1ccc2nc(N)c(N3CCOCC3)cc2c1` [Example 169, 6-(2-(benzyloxy)-6-methylphenyl)-3-morpholinoquinolin-2-amine], the concentration for half-maximal inhibition (IC50) was below 100 nM at BACE1 and above 5000 nM in assay [1] (Homo sapiens, HEK293, 24 h).

Turning to `Cc1cccc(OCCOC(C)C)c1-c1ccc2nc(N)c(N3CCOCC3)cc2c1` [Example 170, 6-(2-(2-isopropoxyethoxy)-6-methylphenyl)-3-morpholinoquinolin-2-amine], the IC50 is below 100 nM at BACE1 and 1010 to 5000 nM in assay [1] (Homo sapiens, HEK293, 24 h).

Regarding `Cc1cccc(Oc2ccccc2)c1-c1ccc2nc(N)c(N3CCOCC3)cc2c1` [Example 171, 6-(2-methyl-6-phenoxyphenyl)-3-morpholinoquinolin-2-amine], the IC50 is below 100 nM at BACE1 and above 5000 nM in assay [1] (Homo sapiens, HEK293, 24 h).

Regarding `Cc1cccc(CCC(C)(C)C)c1-c1ccc2nc(N)c(N3CCOCC3)cc2c1` [Example 172, 6-(2-(3,3-dimethylbutyl)-6-methylphenyl)-3-morpholinoquinolin-2-amine], the IC50 is below 100 nM at BACE1 and 1010 to 5000 nM in assay [1] (Homo sapiens, HEK293, 24 h).

With `Cc1cccc(C(=O)c2cccc(C)c2-c2ccc3nc(N)c(N4CCOCC4)cc3c2)c1` [Example 173, (2-(2-amino-3-morpholinoquinolin-6-yl)-3-methylphenyl)(m-tolyl)methanone], the IC50 on BACE1 is below 100 nM; in assay [1] (Homo sapiens, HEK293, 24 h) it was 1010 to 5000 nM.

For the compound `Cc1cccc(C(=O)c2cccc(Cl)c2)c1-c1ccc2nc(N)c(N3CCOCC3)cc2c1` [Example 174, (2-(2-amino-3-morpholinoquinolin-6-yl)-3-methylphenyl)(3-chlorophenyl)methanone], the IC50 on BACE1 is below 100 nM; in assay [1] (Homo sapiens, HEK293, 24 h) it was 1010 to 5000 nM.

For `COc1ccc(C(=O)c2cccc(C)c2-c2ccc3nc(N)c(N4CCOCC4)cc3c2)cc1` [Example 175, (2-(2-amino-3-morpholinoquinolin-6-yl)-3-methylphenyl)(4-methoxyphenyl)methanone], the 50% inhibitory concentration (IC50) on BACE1 is below 100 nM; in assay [1] (Homo sapiens, HEK293, 24 h), 1010 to 5000 nM.

For the compound `Cc1cccc(C(=O)c2ccc(Cl)cc2)c1-c1ccc2nc(N)c(N3CCOCC3)cc2c1` [Example 176, (2-(2-amino-3-morpholinoquinolin-6-yl)-3-methylphenyl)(4-chlorophenyl)methanone], the IC50 on BACE1 is below 100 nM; in assay [1] (Homo sapiens, HEK293, 24 h), 1010 to 5000 nM.

`COc1cccc(C(=O)c2cccc(C)c2-c2ccc3nc(N)c(N4CCOCC4)cc3c2)c1` [Example 177, (2-(2-amino-3-morpholinoquinolin-6-yl)-3-methylphenyl)(3-methoxyphenyl)methanone]: the IC50 on BACE1 lay within 100 to 500 nM; in assay [1] (Homo sapiens, HEK293, 24 h), 1010 to 5000 nM.

For `Cc1ccc(C(=O)c2cccc(C)c2-c2ccc3nc(N)c(N4CCOCC4)cc3c2)cc1` [Example 178, (2-(2-amino-3-morpholinoquinolin-6-yl)-3-methylphenyl)(p-tolyl)methanone], the IC50 is below 100 nM on BACE1 and 1010 to 5000 nM in assay [1] (Homo sapiens, HEK293, 24 h).

As to `CCCC(=O)c1cccc(C)c1-c1ccc2nc(N)c(N3CCOCC3)cc2c1` [Example 179, 1-(2-(2-amino-3-morpholinoquinolin-6-yl)-3-methylphenyl)butan-1-one], the IC50 at BACE1 is 100 to 500 nM; in assay [1] (Homo sapiens, HEK293, 24 h), 1010 to 5000 nM.

As to `CCCCC(=O)c1cccc(C)c1-c1ccc2nc(N)c(N3CCOCC3)cc2c1` [Example 180, 1-(2-(2-amino-3-morpholinoquinolin-6-yl)-3-methylphenyl)pentan-1-one], the IC50 at BACE1 was below 100 nM; in assay [1] (Homo sapiens, HEK293, 24 h), 1010 to 5000 nM.

In the case of `Cc1cccc(C(=O)C2CCCCC2)c1-c1ccc2nc(N)c(N3CCOCC3)cc2c1` [Example 181, (2-(2-amino-3-morpholinoquinolin-6-yl)-3-methylphenyl)(cyclohexyl)methanone], the IC50 on BACE1 is below 100 nM; in assay [1] (Homo sapiens, HEK293, 24 h), 1010 to 5000 nM.

Take `Cc1cccc(C(=O)CC(C)C)c1-c1ccc2nc(N)c(N3CCOCC3)cc2c1` [Example 182, 1-(2-(2-amino-3-morpholinoquinolin-6-yl)-3-methylphenyl)-3-methylbutan-1-one]: the IC50 is below 100 nM on BACE1 and 501 to 1000 nM in assay [1] (Homo sapiens, HEK293, 24 h).

As for `CC=CC(=O)c1cccc(C)c1-c1ccc2nc(N)c(N3CCOCC3)cc2c1` [Example 183, 1-(2-(2-amino-3-morpholinoquinolin-6-yl)-3-methylphenyl)but-2-en-1-one], the IC50 on BACE1 is 100 to 500 nM; in assay [1] (Homo sapiens, HEK293, 24 h), 1010 to 5000 nM.

As to `Cc1cccc(C(=O)C2CCCC2)c1-c1ccc2nc(N)c(N3CCOCC3)cc2c1` [Example 184, (2-(2-amino-3-morpholinoquinolin-6-yl)-3-methylphenyl)(cyclopentyl)methanone], the IC50 on BACE1 was below 100 nM; in assay [1] (Homo sapiens, HEK293, 24 h) it was 501 to 1000 nM.

As for `Cc1cccc(C(=O)Cc2ccccc2)c1-c1ccc2nc(N)c(N3CCOCC3)cc2c1` [Example 185, 1-(2-(2-amino-3-morpholinoquinolin-6-yl)-3-methylphenyl)-2-phenylethanone], the IC50 on BACE1 is below 100 nM; in assay [1] (Homo sapiens, HEK293, 24 h), 1010 to 5000 nM.

On to `Cc1cccc(C(=O)C2CC2)c1-c1ccc2nc(N)c(N3CCOCC3)cc2c1` [Example 186, (2-(2-amino-3-morpholinoquinolin-6-yl)-3-methylphenyl)(cyclopropyl)methanone], for which the IC50 at BACE1 fell in the range of 100 to 500 nM; in assay [1] (Homo sapiens, HEK293, 24 h), 1010 to 5000 nM.

In the case of `COc1cccnc1C(=O)c1cccc(C)c1-c1ccc2nc(N)c(N3CCOCC3)cc2c1` [Example 187, (2-(2-amino-3-morpholinoquinolin-6-yl)-3-methylphenyl)(3-methoxypyridin-2-yl)methanone], the half-inhibitory concentration (IC50) on BACE1 was below 100 nM; in assay [1] (Homo sapiens, HEK293, 24 h) it was 100 to 500 nM.

Regarding `COc1ccccc1C(=N)c1cccc(C)c1-c1ccc2nc(N)c(N3C[C@@H]4C[C@H]3CO4)cc2c1` [Example 188, 3-((1S,4S)-2-oxa-5-azabicyclo[2.2.1]heptan-5-yl)-6-(2-(imino(2-methoxyphenyl)methyl)-6-methylphenyl)quinolin-2-amine], the IC50 on BACE1 lay within 100 to 500 nM; in assay [1] (Homo sapiens, HEK293, 24 h), 501 to 1000 nM.

Take `Cc1cccnc1C(=O)c1cccc(C)c1-c1ccc2nc(N)c(N3CCOCC3)cc2c1` [Example 189, (2-(2-amino-3-morpholinoquinolin-6-yl)-3-methylphenyl)(3-methylpyridin-2-yl)methanone]: the IC50 on BACE1 is 100 to 500 nM; in assay [1] (Homo sapiens, HEK293, 24 h), 501 to 1000 nM.

Take `Cc1cccc(/C(=N/O)c2ccccc2)c1-c1ccc2nc(N)c(N3CCOCC3)cc2c1` [Example 190, (E)-(2-(2-amino-3-morpholinoquinolin-6-yl)-3-methylphenyl)(phenyl)methanone oxime]: the IC50 is below 100 nM on BACE1 and 100 to 500 nM in assay [1].

Consider `CO/N=C(/c1ccccc1)c1cccc(C)c1-c1ccc2nc(N)c(N3CCOCC3)cc2c1` [Example 191, (Z)-(2-(2-amino-3-morpholinoquinolin-6-yl)-3-methylphenyl)(phenyl)methanone O-methyl oxime], for which the IC50 on BACE1 was below 100 nM; in assay [1] (Homo sapiens, HEK293, 24 h), 1010 to 5000 nM.

On to `Nc1nc2ccc(-c3c(CC4OCCO4)cccc3C(=O)N3CCCC3)cc2cc1N1CCOCC1` [Example 192, (3-((1,3-dioxolan-2-yl)methyl)-2-(2-amino-3-morpholinoquinolin-6-yl)phenyl)(pyrrolidin-1-yl)methanone], for which the IC50 on BACE1 was below 100 nM; in assay [1] (Homo sapiens, HEK293, 24 h), 100 to 500 nM.

For the compound `Cc1ccccc1C(N)c1cccc(C)c1-c1ccc2nc(N)c(N3CCOCC3)cc2c1` (centres unmarked) [Example 193, 6-(2-(amino(o-tolyl)methyl)-6-methylphenyl)-3-morpholinoquinolin-2-amine], the IC50 on BACE1 is below 100 nM; in assay [1] (Homo sapiens, HEK293, 24 h), below 100 nM.

For `Cc1cccnc1C(N)c1cccc(C)c1-c1ccc2nc(N)c(N3CCOCC3)cc2c1` (centres unmarked) [Example 194, 6-(2-(amino(3-methylpyridin-2-yl)methyl)-6-methylphenyl)-3-morpholinoquinolin-2-amine], the IC50 on BACE1 lay in the range of 501 to 1000 nM; in assay [1] (Homo sapiens, HEK293, 24 h), 100 to 500 nM.

`COc1ccccc1C(N)c1cccc(C)c1-c1ccc2nc(N)c(N3CCOCC3)cc2c1` (centres unmarked) [Example 195, 6-(2-(amino(2-methoxyphenyl)methyl)-6-methylphenyl)-3-morpholinoquinolin-2-amine]: the IC50 on BACE1 is below 100 nM; in assay [1] (Homo sapiens, HEK293, 24 h) it was below 100 nM.
